Assays:
DC2.4 cells [1] = assay: Cell transfection assay (D-Luciferin), DC2.4; format: cell-based
Procedure: (§1) A549 cells were digested and collected the day before treatment and the cell concentration was adjusted to 2*10^5 cells/mL, 200 μL cell culture medium with a concentration of 2*10^5 cells/mL was added to the 96-well plate, resulting in approximately 4*10^4 cells per well in the 96-well plate. Digested and collected DC2.4 cells and adjusted the cell concentration to 1*10^5 cells/mL, added 200 μL cell culture medium with a concentration of 1*10^5 cells/mL to the 96-well plate, so that the number of cells per well in the 96-well plate is approximately 2*10^4. The cells were incubated in a cell culture incubator (Esco Micro Pte Ltd, Singapore, CLM-170B-8-NF) at 37° C. 5% CO2 for 24 h.
(§2) On the day of cell treatment, the medium (Thermo Fisher Scientific) was aspirated from the 96-well plate, 200 μL of PBS was added to each well to rinse the cells and then the PBS (Thermo Fisher Scientific) was removed, and 180 μL of opti-MEM (Thermo Fisher Scientific) was added to each well of the treatment group.
(§3) Different volumes of the preparation were taken and diluted by adding the buffer used for the preparation or the buffer used for dialysis, and four dosing concentrations were prepared for each preparation, and 20 μL of the diluted nanopreparation was added to each well of a 96-well plate (3 replicate wells for each concentration), and the dosing concentrations of the preparation were about 50 ng mRNA/well, 100 ng mRNA/well, 200 ng mRNA/well, and 300 ng mRNA/well, respectively.
(§4) The 96-well cell culture plate was placed in a cell culture incubator and incubated at 37° C. 5% CO2 for 4 h. The medium was sucked up, and 200 μL of DMEM complete medium was added to each well and incubated for 20 h for detection.
(§5) D-Luciferin (Biohub International Trade Co., Ltd.) stock solution (9900 μL of complete medium+100 μL of 25 mg/mL of D-Luciferin stock solution) was diluted with DMEM complete medium at 99:1 to make a working solution at the concentration of 250 μg/mL (25 μg per well).
(§6) The 96-well cell culture plate was taken out and the supernatant was removed. Before imaging, the 96-well plate was added with 100 μL of D-Luciferin working solution, incubated at 37° C. for 5 min, and imaged and analyzed by the plate reader.

[2] = Stability of LNP formulations after storage; format: physicochemical; settings: both formulations; physical stability and in vivo delivery efficiency
Procedure: Excipients and/or cryoprotectants, such as sucrose, can be added to the nucleic acid lipid nanoparticle preparation obtained in step 6 or to the nucleic acid lipid nanoparticle preparation obtained after dialysis in step 7. As an example, 40% sucrose (Aladdin Reagent (Shanghai) Co., Ltd.) was added to the nucleic acid lipid nanoparticle preparation with the volume ratio of 3:1, which is mixed homogeneously to obtain nucleic acid lipid nanoparticle preparation containing 10% sucrose, and further aliquoted into ribozyme-free centrifuge tubes and stored in an ice box, 4° C., −20° C., and/or −80° C. refrigerator for later use. Physicochemical property measurement and in vivo effect validation of the lipid nanoparticles were performed after thawing and returning to room temperature after storage for the indicated time.

[3] = Potential characterization of nanoparticle preparations; format: physicochemical
Procedure: 20 μL of the nucleic acid lipid nanoparticle solution (containing about 0.04 mg/mL mRNA) was taken and added with 780 μL of ultrapure water, used a pipette tip to gently blow and mix, and the potential of the nanopreparation was detected by Malvern particle sizer (model ZEN3700). 27.5 μL nucleic acid lipid nanoparticle solution (containing about 0.04 mg/mL mRNA) was taken and added with 200 μL ultrapure water. A pipette tip was used to gently blow the sample and mix well. The particle size of the nanopreparation was detected by Malvern Dynamic Light Scattering Instrument (Malvern Instruments Ltd., ZEN3700, UK). After the detection, the sample was recovered to an EP tube, and 600 μL of ultrapure water was added, gently blown with a pipette tip, and the potential of the nanopreparation was measured by a Malvern particle size meter.

[4] = Particle size and PDI by dynamic light scattering; format: physicochemical; settings: Table 2; for Particle size (nm): LNP formulation with mRNA; for PDI: polydispersity value
In short: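 Lipid nanoparticle solution (about 0.04 mg/mL mRNA) diluted in ultrapure water and particle size measured by dynamic light scattering on a Malvern instrument. Sample then further diluted with water for potential measurement.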

[5] = Osmotic pressure by freezing point osmometer; format: physicochemical; settings: formulation No. 1, molar ratio 1.50:20:33.50:45.00
Procedure: 50 μL of the nucleic acid lipid nanoparticle solution (containing about 0.04 mg/mL mRNA) was taken and the osmotic pressure of the nanopreparation was detected by freezing point penetrometer (Gonotec GmbH, OSMOMAT 3000-D).

A549 cells = assay: Cell transfection assay (D-Luciferin), A549; format: cell-based
Procedure: as §1, §2, §3, §4, §5, §6

DC2.4 cells [6] = assay: Cytotoxicity assay (CCK-8), DC2.4; format: cell-based; settings: formulation No. 2
Procedure: as §1, §2, §3, §4
Diluted CCK-8 detection reagent (Shanghai Beyotime Biotechnology Co., Ltd.) masterbatch (900 μL complete medium+100 μL CCK-8 detection reagent) with DMEM complete medium at 9:1 to prepare CCK-8 working solution.
Take out the 96-well cell culture plate and removed the supernatant. Before detection, the 96-well plate was added with 100 μL CCK-8 working solution, incubated in the cell culture incubator at 37° C. 5% CO2 for 2 h, and analyzed by plate reader. The cell viability was calculated to reflect the cytotoxicity.

[7] = molar ratio 1.50:11.50:38.50:48.50, N/P 24
[8] = molar ratio 1.50:20.00:33.50:45.00, N/P 40
[9] = molar ratio 1.71:12.98:45.31:40.00, N/P 40

## CCCCCCCCCCCCOC(=O)C(O)CN(CCCN1CCN(CCCN(CC(O)C(=O)OCCCCCCCCCCCC)CC(O)C(=O)OCCCCCCCCCCCC)CC1)CC(O)C(=O)OCCCCCCCCCCCC (stereo not shown) [Compound L0191]
DC2.4 cells [1]; formulation No. 1, 50 ng/well
  DC2.4 cell transfection/RLU: 44580.00 RLU
DC2.4 cells [1]; formulation No. 1, 100 ng/well
  DC2.4 cell transfection/RLU: 38457.67 RLU
DC2.4 cells [1]; formulation No. 1, 200 ng/well
  DC2.4 cell transfection/RLU: 51212.00 RLU
DC2.4 cells [1]; formulation No. 1, 300 ng/well
  DC2.4 cell transfection/RLU: 49462.00 RLU
DC2.4 cells [1]; formulation No. 2, 50 ng/well
  DC2.4 cell transfection/RLU: 22385.67 RLU
DC2.4 cells [1]; formulation No. 2, 100 ng/well
  DC2.4 cell transfection/RLU: 31266.67 RLU
DC2.4 cells [1]; formulation No. 2, 200 ng/well
  DC2.4 cell transfection/RLU: 45175.33 RLU
DC2.4 cells [1]; formulation No. 2, 300 ng/well
  DC2.4 cell transfection/RLU: 66928.33 RLU
[2]
  stability after storage under different conditions: excellent stability
[3]; formulation No. 1, molar ratio 1.50:20:33.50:45.00
  Zeta potential: 11.30 ± 0.69
[3]; formulation No. 2, molar ratio 1.50:11.50:38.50:48.50
  Zeta potential: 12.67 ± 0.61
[4]; [7]
  Particle size (nm): 75.33 ± 0.78 nm
  PDI: 0.10 ± 0.01
[4]; [8]
  Particle size (nm): 70.87 ± 0.35 nm
  PDI: 0.17 ± 0.01
[4]; [9]
  Particle size (nm): 92.00 ± 0.39 nm
  PDI: 0.15 ± 0.02
[5]
  osmotic pressure: 2139
A549 cells; all tested formulations, A549 and DC2.4 cells
  transfection efficiency (in words): high
A549 cells; formulation No. 1 (1.50:20:33.50:45.00), 50 ng/well
  A549 transfection/RLU: 61522.00 RLU
A549 cells; formulation No. 1, 100 ng/well
  A549 transfection/RLU: 80557.33 RLU
A549 cells; formulation No. 1, 200 ng/well
  A549 transfection/RLU: 81404.33 RLU
A549 cells; formulation No. 1, 300 ng/well
  A549 transfection/RLU: 84806.33 RLU
A549 cells; formulation No. 2 (1.50:11.50:38.50:48.50), 50 ng/well
  A549 transfection/RLU: 31491.33 RLU
A549 cells; formulation No. 2, 100 ng/well
  A549 transfection/RLU: 54866.67 RLU
A549 cells; formulation No. 2, 200 ng/well
  A549 transfection/RLU: 90775.67 RLU
A549 cells; formulation No. 2, 300 ng/well
  A549 transfection/RLU: 88154.33 RLU
DC2.4 cells [6]; 50 ng/well
  DC2.4 cellular tox (% cells alive): 95.97%
DC2.4 cells [6]; 100 ng/well
  DC2.4 cellular tox (% cells alive): 87.33%
DC2.4 cells [6]; 200 ng/well
  DC2.4 cellular tox (% cells alive): 75.79%
DC2.4 cells [6]; 300 ng/well
  DC2.4 cellular tox (% cells alive): 92.20%
